Source: US20170158636A1, “FUNCTIONALISED AND SUBSTITUTED CARBAZOLES AS ANTI-CANCER AGENTS” (Novogen Ltd., priority 2014, published 2017)

Experiments:
[1] = system: DU145 prostate cancer cells; test: Anti-proliferative activity, cell-titre luminescent viability assay; type: cell-based; conditions: Homo sapiens, DU-145, 72 hours exposure
Protocol: (§1) The ability of compounds 1001-1018 and 1037-1039 to inhibit the proliferation of cancer cells representative of neuroblastoma, melanoma, prostate cancer, colorectal cancer, non-small cell lung carcinoma, and triple negative breast cancer was assessed (Table 1).
(§2) Briefly, a pre-determined number of cells as calculated from cell growth assays for each of the cell lines employed were seeded into their respective culture medium (using ATCC culture parameters—http://www.atcc.org) and cultured for 24 hours at 37° C. and 5% CO2 in 96-well culture plates. Once attached, each cell line was then exposed to increasing concentrations of each respective analogue (0.03, 0.3, 3 and 30 μM for compounds 1001-13 and 1015-18; 0.1, 0.3, 1, 3, 10 and 30 μM for compounds 1014 and 1037-39), cultured for a further 72 hours and exposed to cell-titre luminescent reagent (100 μL/well) for a further 30 minutes) to measure cell viability. Luminescence was captured using an EnVision multilabel reader and the data for each analogue concentration compared against no treatment control. For compounds 1001-13 and 1015-18, semi-log plots of Percent of Control versus concentration were prepared and IC50 determined using linear regression analysis. For compounds 1014 and 1037-39, cell viability was normalized to control (vehicle alone) and dose-response curves, and half maximal effective concentration (EC50) values were determined using Graph Pad Prism 6 (nonlinear regression sigmoidal dose-response variable slope).

[2] = system: CaCo2 colorectal cancer cells; test: as above; type: cell-based; conditions: Homo sapiens, Caco-2, 72 hours exposure
Protocol: as §1, §2

[3] = system: MDA-MB-231 breast cancer cells; test: as above; type: cell-based; conditions: Homo sapiens, 72 hours exposure
Protocol: as §1, §2

[4] = system: PC3 prostate cancer cells; test: as above; type: cell-based; conditions: 72 hours exposure
Protocol: as §1, §2

[5] = system: SK-N-SH neuroblastoma cells; test: as above; type: cell-based; conditions: Homo sapiens, 72 hours exposure
Protocol: as §1, §2

[6] = system: SK-Mel-28 melanoma cells; test: as above; type: cell-based; conditions: Homo sapiens, 72 hours exposure
Protocol: as §1, §2

[7] = system: A549 lung (NSLC) cancer cells; test: as above; type: cell-based; conditions: Homo sapiens, 72 hours exposure
Protocol: as §1, §2

[8] = system: IL-21; test: Cytokine release from PMA/ionomycin-stimulated PBMCs (HTRF); type: cell-based; conditions: PBMC, human PBMCs, PMA and ionomycin
Protocol: (§3) The ability of compounds 1004, 1007 and 1018 to inhibit the release of cytokines TNF-α, IFN-γ, IL-6, IL-21, IL-17A and IL-23 was evaluated in vitro (Tables 2 and 3). Briefly, human peripheral blood mononuclear cells (PBMCs) were isolated from human peripheral blood by Histopaque density gradient centrifugation. The freshly isolated PBMCs were seeded at 50,000 cells/well in a 96-well half area plate. PBMCs were dosed with the test compounds (at 10 μM, 1 μM and 0.1 μM) and then incubated at 37° C. and 5% CO2 for 2 hours. To stimulate release of the cytokines IFN-γ, IL-21, IL-17A and IL-23, the PBMCs were treated with 50 ng/mL of phorbol 12-myristate 13-acetate (PMA) and 1 μg/mL of ionomycin and to stimulate the release of TNF-α and IL-6, PBMCs were treated with 100 ng/mL of lipopolysaccharide (LPS) from gram-negative bacteria. The PBMCs were then incubated at 37° C. and 5% CO2 for a further 6 hours and the cell supernatant was collected and a Homogenous Time Resolved Fluorescence (HTRF) assay was carried out following the manufacturer's instructions. Cytokine release from the PBMCs was captured using a Perkin Elmer ENVISION 2104 microplate reader set at 615 nm and 665 nm respectively.

[9] = system: IL-23; test: as above; type: cell-based; conditions: PBMC, human PBMCs, PMA and ionomycin
Protocol: as §3

[10] = system: IL-17A; test: as above; type: cell-based; conditions: PBMC, human PBMCs, PMA and ionomycin
Protocol: as §3

[11] = system: IFN-γ; test: as above; type: cell-based; conditions: PBMC, human PBMCs, PMA and ionomycin
Protocol: as §3

[12] = system: IL-6; test: Cytokine release from LPS-stimulated PBMCs (HTRF); type: cell-based; conditions: PBMC, human PBMCs
Protocol: as §3

[13] = system: TNF-α; test: Cytokine release from LPS-stimulated PBMCs (HTRF); type: cell-based; conditions: PBMC, human PBMCs
Protocol: as §3

[14] = system: actin cytoskeleton in SK-N-SH neuroblastoma cells; test: Microfilament disruption assay (phalloidin staining, linear feature quantitation); type: cell-based; conditions: 0-40 μM, 24 hours post treatment
Protocol: FIG. 1: Imaging and quantitation of actin filaments in SK-N-SH neuroblastoma cells treated with compound (A) 1007, (B) 1013 and (C) 1016. Cells were stained with 488-Atto-Phallodin and DAPI to visualize the actin filament bundles and the nucleus, respectively. Shown in the top panel is a representative gray scale immunofluorescent image from control (vehicle alone), 5 μM and 10 μM treated cells. […] The coloured lines indicate the detected actin filaments. Also shown is the quantitation of cell number, filament number/cell and filament number/cell area (μM^2). Statistical analysis was performed using a one way ANNOVA-multiple comparison where each drug treated group was compared to the control. ****p<0.0001, […].
The ability of compounds 1007, 1013 and 1016 to disrupt the actin cytoskeleton was assessed in vitro using the microfilament disruption assay (FIG. 1).
Briefly, SK-N-SH neuroblastoma cells were seeded at 1800 cells/well in a 384 Perkin Elmer High Content Imaging “Cell Carrier” plate and left to plate down 24 hours prior to treatment. Cells were then treated with 0-40 μM of the test compounds (1:2 serial dilution in a 10 point dose response). 24 hours post treatment, cells were fixed with 4% w/v paraformaldehyde (PBS), permeabilized with Triton-X-100 and stained with 488-Atto-Phallodin and DAPI to visualize the actin filament bundles and the nucleus respectively. Single plane images were obtained on the Perkin Elmer Opera confocal microscope using a 20× objective. Twelve fields of view per condition (representing approximately 300-800 cells) were imaged. Images were then exported and changes in the organization and numbers of actin filaments within the cell were quantitated using a linear feature detection algorithm developed by CSIRO (Vindin et al. 2014). This algorithm detects the “ridge lines” or “peaks” in local pixel intensity in the cell image. It is these “ridge lines” that correspond to actin filament bundles and allow us to quantitate the number of filaments per cell.

[15] = system: Tpm3.1-containing actin filaments in SK-N-SH neuroblastoma cells; test: Disruption of Tpm3.1-containing actin filaments (γ9d staining); type: cell-based; conditions: SK-N-SH cells, 0, 5 and 7.5 μM, 48 hours post treatment
Protocol: FIG. 2: Imaging and quantitation of Tpm3.1-containing actin filaments in SK-N-SH neuroblastoma cells treated with compound (A) 1007, (B) 1013 and (C) 1016. Cells were stained with γ9d (sheep polycolonal, 1:100) followed by 488-conjugated secondary (1:1000) and DAPI to visualize the Tpm3.1 containing filament bundles and the nucleus, respectively. Shown in the top panel is a representative gray scale immunofluorescent image from control (vehicle alone), 5 μM and 7.5 μM treated cells. […] The coloured lines indicate the detected Tpm3.1 containing actin filaments. Also shown is the quantitation of cell number, Tpm3.1 filament number/cell and Tpm3.1 filament number/cell area (μM^2). Statistical analysis was performed using a one way ANNOVA-multiple comparison where each drug treated group was compared to the control. ****p<0.0001.
Another assay was conducted to assess the ability of compounds 1007, 1013 and 1016 to specifically disrupt actin filaments containing Tpm3.1 (FIG. 2). Briefly, SK-N-SH neuroblastoma cells were seeded at 2×10^4 cells/mL in a 10 cm tissue culture plate and left to plate down 24 hours prior to treatment. Cells were then treated with 0, 5 and 7.5 μM of the test compounds. 48 hours post treatment, cells were fixed with 4% w/v paraformaldehyde (PBS), permeabilized with Triton-X-100 and stained with γ9d (sheep polycolonal, 1:100) followed by 488-conjugated secondary (1:1000) and DAPI to visualize the Tpm3.1 containing filament bundles and the nucleus, respectively. Single plane images were obtained on the Zeiss epifluorescent Axioscope microscope using a 20× objective. Six fields of view per condition were imaged. Images were then exported and the linear features (actin filaments containing Tpm3.1) were then quantitated using the linear feature detection algorithm described above.

[16] = system: Skeletal myosin II; test: Actin-activated myosin II ATPase activity; type: biochemical; conditions: 50 μM, absence of Tpm3.1
Protocol: FIG. 4: Effect of anti-tropomyosin compounds on actin-activated myosin II ATPase activity. Skeletal myosin II (30-60 nM) was incubated with 1% (v/v) DMSO or 50 μM of Blebbistatin, TR100 or compound 1001 for 5 min prior to mixing with 3 μM F-actin. Reactions were initiated with 1 mM ATP and inorganic phosphate release was detected spectrophotometrically. Data represents mean±SEM, for n=2-4 independent repeats. **P-value, 0.001<0.01.
To exclude an off-target activity, the impact of compound 1001 and TR100 (another small molecule with anti-tropomyosin activity) on myosin II ATPase activity was evaluated in the absence of Tpm3.1. The small molecule blebbistatin was included as a positive control known to inhibit myosin II ATPase activity. Blebbistatin acts by binding to the myosin-ADP-Pi complex and slowing the release of inorganic phosphate (Kovacs et al., 2004). Myosin II was pre-incubated with 50 μM of blebbistatin, TR100 or 1001 prior to mixing with F-actin. […] Compound 1001 had no effect on myosin ATPase activity at equivalent concentrations to that of TR100 (FIG. 4).

| IC50 [1] | IC50 [2] | IC50 [3] | IC50 [4] | IC50 [5] | IC50 [6] | IC50 [7] | SMILES | inhibition at 0.1 µM [8] | inhibition at 1 µM [8] | inhibition at 10 µM [8] | inhibition at 0.1 µM [9] | inhibition at 1 µM [9] | inhibition at 10 µM [9] | inhibition at 0.1 µM [10] | inhibition at 1 µM [10] | inhibition at 10 µM [10] | inhibition at 0.1 µM [11] | inhibition at 1 µM [11] | inhibition at 10 µM [11] | inhibition at 0.1 µM [12] | also measured |
| --- | --- | --- | --- | --- | --- | --- | --- | --- | --- | --- | --- | --- | --- | --- | --- | --- | --- | --- | --- | --- | --- |
| 3.3 µM | 3.7 µM | 3.8 µM | 2.9 µM | 2.9 µM | 3.5 µM | 3.4 µM | CN(C)CCCn1c2ccccc2c2cc(C(=O)N3CCN(CCc4ccc5c(c4)OCO5)CC3)ccc21 [Compound 1004, (4-(2-(benzo[d][1,3]dioxol-5-yl)ethyl)piperazin-1-yl)(9-(3-(dimethylamino)propyl)-9H-carbazol-3-yl)methanone] | -6% | -3% | 2% | -16% | 9% | 22% | -2% | 6% | 47% | -19% | -6% | -7% | -9% | inhibition at 1 µM [12]: -10%; inhibition at 10 µM [12]: 2%; inhibition at 0.1 µM [13]: 9%; inhibition at 1 µM [13]: -8%; inhibition at 10 µM [13]: 1% |
| 3.5 µM | 2 µM | 2.8 µM | 3.3 µM | 2.4 µM | 2 µM | 3.7 µM | CN1CCN(CCCn2c3ccccc3c3cc(C(=O)N4CCN(CCc5ccc(F)cc5)CC4)ccc32)CC1 [Compound 1013, (4-(4-fluorophenethyl)piperazin-1-yl)(9-(3-(4-methylpiperazin-1-yl)propyl)-9H-carbazol-3-yl)methanone] | – | – | – | – | – | – | – | – | – | – | – | – | – | disruption of the actin cytoskeleton [14]: disrupt the actin cytoskeleton in a dose-dependent manner; disruption of Tpm3.1-containing actin filaments [15]: disrupt Tpm3.1-containing actin filaments in a dose-dependent manner |
| 2.8 µM | 3.1 µM | 2.5 µM | 4 µM | 2.7 µM | 2.4 µM | 3 µM | CN1CCN(CCCn2c3ccccc3c3cc(C(=O)N4CCN(CCc5cccc(F)c5)CC4)ccc32)CC1 [Compound 1016, (4-(3-fluorophenethyl)piperazin-1-yl)(9-(3-(4-methylpiperazin-1-yl)propyl)-9H-carbazol-3-yl)methanone] | – | – | – | – | – | – | – | – | – | – | – | – | – | disruption of the actin cytoskeleton [14]: disrupt the actin cytoskeleton in a dose-dependent manner; disruption of Tpm3.1-containing actin filaments [15]: disrupt Tpm3.1-containing actin filaments in a dose-dependent manner |
| 3.3 µM | 1.5 µM | 1.6 µM | 2.9 µM | 1.9 µM | 2.5 µM | 2 µM | CN1CCN(CCCn2c3ccccc3c3cc(C(=O)N4CCN(CCc5ccccc5)CC4)ccc32)CC1 [Compound 1018, (4-phenethylpiperazin-1-yl)(9-(3-(4-methylpiperazin-1-yl)propyl)-9H-carbazol-3-yl)methanone] | 13% | 33% | 50% | -6% | -2% | 58% | 2% | 34% | 45% | 2% | 19% | 92% | 22% | inhibition at 1 µM [12]: 56%; inhibition at 10 µM [12]: 89%; inhibition at 0.1 µM [13]: 26%; inhibition at 1 µM [13]: 58%; inhibition at 10 µM [13]: 77% |
| – | – | – | – | – | – | – | CCCCCCCCNC(=O)/C(C#N)=C/c1c(C)n(CCCN(C)C)c2ccccc12 [TR100] | – | – | – | – | – | – | – | – | – | – | – | – | – | inhibition of actin-activated myosin ATPase activity [16]: ~70% |
| – | – | – | – | – | – | – | Cc1ccc2c(c1)C(=O)C1(O)CCN(c3ccccc3)C1=N2 (stereo not shown) [blebbistatin] | – | – | – | – | – | – | – | – | – | – | – | – | – | effect on actin-activated myosin II ATPase activity [16]: strongly inhibited |
